Laboratory results from PubChem BioAssay (NCI).
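Test compounds were applied to cells in 96-well plates for 48 hours at 5 doses. The concentration for 50% growth inhibition is given as GI50. Definition used: TGI = concentration required for complete inhibition of growth.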

What was measured:
Assay in all cases: NCI anticancer screen, dose series, 48 h
ACHN renal = test system: ACHN renal
LOX IMVI melanoma = test system: LOX IMVI melanoma
UACC-62 melanoma = test system: UACC-62 melanoma
SF-539 CNS = test system: SF-539 CNS
SN12C renal = test system: SN12C renal
HL-60(TB) leukemia = test system: HL-60(TB) leukemia
MDA-MB-435 = test system: MDA-MB-435
T-47D breast = test system: T-47D breast
SK-MEL-5 melanoma = test system: SK-MEL-5 melanoma
UO-31 renal = test system: UO-31 renal
A549 NSCLC = test system: A549 NSCLC
IGROV1 ovarian = test system: IGROV1 ovarian
HCT-15 colon = test system: HCT-15 colon
HS 578T breast = test system: HS 578T breast
HCT-116 colon = test system: HCT-116 colon
HOP-92 NSCLC = test system: HOP-92 NSCLC
OVCAR-3 ovarian = test system: OVCAR-3 ovarian
COLO 205 colon = test system: COLO 205 colon
NCI-H522 lung = test system: NCI-H522 lung
SK-OV-3 ovarian = test system: SK-OV-3 ovarian
SW-620 colon = test system: SW-620 colon
MCF7 breast = test system: MCF7 breast
786-0 renal = test system: 786-0 renal
NCI-H23 lung = test system: NCI-H23 lung
HCC-2998 colon = test system: HCC-2998 colon
PC-3 prostate = test system: PC-3 prostate
EKVX NSCLC = test system: EKVX NSCLC
OVCAR-5 ovarian = test system: OVCAR-5 ovarian
A498 renal = test system: A498 renal

SMILES: O=C(Nc1ncc(Cc2ccccc2)s1)c1ccc2c(c1)OCCO2
- TGI (ACHN renal): > 100000 nM
- GI50 (LOX IMVI melanoma): 54.6 nM
- TGI (LOX IMVI melanoma): > 74300 nM
- GI50 (UACC-62 melanoma): 46.5 nM
- TGI (UACC-62 melanoma): 12300 nM
- GI50 (SF-539 CNS): 28.3 nM
- TGI (SF-539 CNS): 177 nM
- GI50 (SN12C renal): 74.8 nM
- TGI (SN12C renal): > 100000 nM
- GI50 (HL-60(TB) leukemia): 41.6 nM
- TGI (HL-60(TB) leukemia): > 100000 nM
- GI50 (MDA-MB-435): 18.7 nM
- TGI (MDA-MB-435): 43.6 nM
- GI50 (T-47D breast): 52.3 nM
- TGI (T-47D breast): > 100000 nM
- GI50 (SK-MEL-5 melanoma): 42.8 nM
- TGI (SK-MEL-5 melanoma): 454 nM
- GI50 (UO-31 renal): 75.6 nM
- TGI (UO-31 renal): > 100000 nM
- GI50 (A549 NSCLC): 61.6 nM
- TGI (A549 NSCLC): > 100000 nM
- GI50 (IGROV1 ovarian): 76.1 nM
- TGI (IGROV1 ovarian): > 100000 nM
- GI50 (HCT-15 colon): 38.5 nM
- TGI (HCT-15 colon): > 100000 nM
- GI50 (HS 578T breast): 35.3 nM
- TGI (HS 578T breast): > 100000 nM
- GI50 (HCT-116 colon): 40.5 nM
- TGI (HCT-116 colon): > 100000 nM
- GI50 (HOP-92 NSCLC): 1350 nM
- TGI (HOP-92 NSCLC): > 100000 nM
- GI50 (OVCAR-3 ovarian): 33.6 nM
- TGI (OVCAR-3 ovarian): 1010 nM
- GI50 (COLO 205 colon): 35.4 nM
- TGI (COLO 205 colon): 1080 nM
- GI50 (NCI-H522 lung): 25.1 nM
- GI50 (SK-OV-3 ovarian): 68.1 nM
- TGI (SK-OV-3 ovarian): 26900 nM
- GI50 (SW-620 colon): 43.5 nM
- TGI (SW-620 colon): > 100000 nM
- GI50 (MCF7 breast): 54.6 nM
- TGI (MCF7 breast): > 100000 nM
- GI50 (786-0 renal): 56.2 nM
- TGI (786-0 renal): > 100000 nM
- GI50 (NCI-H23 lung): 67.9 nM
- TGI (NCI-H23 lung): > 100000 nM
- GI50 (HCC-2998 colon): 72.9 nM
- TGI (HCC-2998 colon): 1630 nM
- GI50 (PC-3 prostate): 42.4 nM
- TGI (PC-3 prostate): > 100000 nM
- GI50 (EKVX NSCLC): 133 nM
- TGI (EKVX NSCLC): > 100000 nM
- GI50 (OVCAR-5 ovarian): 96 nM
- TGI (OVCAR-5 ovarian): > 100000 nM
- GI50 (A498 renal): 12.3 nM
- TGI (A498 renal): 68.7 nM
